According to the NIST ThermoML archive (doi:10.1016/j.fluid.2014.04.002):
Numbers after ± are expanded uncertainties.

Test: xn = mol fraction of the nth substance listed
Settings: 101 kPa, Liquid; for viscosity: Concentric cylinders viscometry; for mass density: Vibrating tube method

CCOC(=O)C(C)O (stereo not drawn) [DL-ethyl lactate] + C1CCOC1
Settings | mass density [kg/m3] | viscosity [mPa·s]
288.15 K, x1 = 0.1002 | 913.682 ± 0.27 | 0.6267 ± 0.012
288.15 K, x1 = 0.2001 | 932.177 ± 0.31 | 0.7629 ± 0.014
288.15 K, x1 = 0.3001 | 949.134 ± 0.36 | 0.9181 ± 0.017
288.15 K, x1 = 0.4001 | 964.944 ± 0.41 | 1.095 ± 0.02
288.15 K, x1 = 0.4999 | 979.595 ± 0.47 | 1.313 ± 0.024
288.15 K, x1 = 0.5999 | 993.315 ± 0.54 | 1.58 ± 0.029
288.15 K, x1 = 0.6999 | 1006.15 ± 0.62 | 1.91 ± 0.036
288.15 K, x1 = 0.7999 | 1018.13 ± 0.71 | 2.309 ± 0.044
288.15 K, x1 = 0.8997 | 1029.17 ± 0.81 | 2.754 ± 0.053
288.15 K, x1 = 1 | 1039.28 ± 0.92 | 3.207 ± 0.062
293.15 K, x1 = 0.1002 | 908.275 ± 0.27 | 0.5901 ± 0.011
293.15 K, x1 = 0.2001 | 926.796 ± 0.31 | 0.7128 ± 0.013
293.15 K, x1 = 0.3001 | 943.748 ± 0.35 | 0.8562 ± 0.016
293.15 K, x1 = 0.4001 | 959.567 ± 0.41 | 1.013 ± 0.019
293.15 K, x1 = 0.4999 | 974.209 ± 0.47 | 1.2 ± 0.022
293.15 K, x1 = 0.5999 | 987.924 ± 0.54 | 1.426 ± 0.027
293.15 K, x1 = 0.6999 | 1000.76 ± 0.61 | 1.701 ± 0.032
293.15 K, x1 = 0.7999 | 1012.74 ± 0.7 | 2.028 ± 0.038
293.15 K, x1 = 0.8997 | 1023.77 ± 0.8 | 2.389 ± 0.046
293.15 K, x1 = 1 | 1033.84 ± 0.91 | 2.75 ± 0.053
298.15 K, x1 = 0.1002 | 902.835 ± 0.27 | 0.5622 ± 0.011
298.15 K, x1 = 0.2001 | 921.368 ± 0.31 | 0.6721 ± 0.013
298.15 K, x1 = 0.3001 | 938.334 ± 0.35 | 0.8003 ± 0.015
298.15 K, x1 = 0.4001 | 954.154 ± 0.41 | 0.9386 ± 0.018
298.15 K, x1 = 0.4999 | 968.8 ± 0.47 | 1.103 ± 0.021
298.15 K, x1 = 0.5999 | 982.515 ± 0.53 | 1.297 ± 0.024
298.15 K, x1 = 0.6999 | 995.342 ± 0.61 | 1.527 ± 0.029
298.15 K, x1 = 0.7999 | 1007.32 ± 0.69 | 1.799 ± 0.034
298.15 K, x1 = 0.8997 | 1018.34 ± 0.79 | 2.096 ± 0.04
298.15 K, x1 = 1 | 1028.39 ± 0.9 | 2.39 ± 0.046
303.15 K, x1 = 0.1002 | 897.364 ± 0.27 | 0.5357 ± 0.01
303.15 K, x1 = 0.2001 | 915.916 ± 0.31 | 0.6349 ± 0.012
303.15 K, x1 = 0.3001 | 932.893 ± 0.35 | 0.7493 ± 0.014
303.15 K, x1 = 0.4001 | 948.718 ± 0.4 | 0.8721 ± 0.016
303.15 K, x1 = 0.4999 | 963.363 ± 0.46 | 1.016 ± 0.019
303.15 K, x1 = 0.5999 | 977.073 ± 0.53 | 1.183 ± 0.022
303.15 K, x1 = 0.6999 | 989.9 ± 0.6 | 1.38 ± 0.026
303.15 K, x1 = 0.7999 | 1001.88 ± 0.69 | 1.607 ± 0.031
303.15 K, x1 = 0.8997 | 1012.89 ± 0.78 | 1.854 ± 0.036
303.15 K, x1 = 1 | 1022.92 ± 0.88 | 2.097 ± 0.041
308.15 K, x1 = 0.1002 | 891.857 ± 0.27 | 0.5111 ± 0.01
308.15 K, x1 = 0.2001 | 910.441 ± 0.31 | 0.6006 ± 0.012
308.15 K, x1 = 0.3001 | 927.416 ± 0.35 | 0.7023 ± 0.013
308.15 K, x1 = 0.4001 | 943.254 ± 0.4 | 0.8122 ± 0.015
308.15 K, x1 = 0.4999 | 957.89 ± 0.46 | 0.9381 ± 0.018
308.15 K, x1 = 0.5999 | 971.596 ± 0.53 | 1.084 ± 0.021
308.15 K, x1 = 0.6999 | 984.431 ± 0.6 | 1.255 ± 0.024
308.15 K, x1 = 0.7999 | 996.411 ± 0.68 | 1.449 ± 0.028
308.15 K, x1 = 0.8997 | 1007.43 ± 0.77 | 1.657 ± 0.032
308.15 K, x1 = 1 | 1017.42 ± 0.87 | 1.858 ± 0.036
313.15 K, x1 = 0.1002 | 886.313 ± 0.27 | 0.4852 ± 0.0096
313.15 K, x1 = 0.2001 | 904.918 ± 0.3 | 0.5661 ± 0.011
313.15 K, x1 = 0.3001 | 921.903 ± 0.35 | 0.659 ± 0.013
313.15 K, x1 = 0.4001 | 937.749 ± 0.4 | 0.7575 ± 0.014
313.15 K, x1 = 0.4999 | 952.388 ± 0.46 | 0.8692 ± 0.017
313.15 K, x1 = 0.5999 | 966.093 ± 0.52 | 0.9979 ± 0.019
313.15 K, x1 = 0.6999 | 978.93 ± 0.59 | 1.146 ± 0.022
313.15 K, x1 = 0.7999 | 990.912 ± 0.67 | 1.313 ± 0.025
313.15 K, x1 = 0.8997 | 1001.93 ± 0.76 | 1.489 ± 0.029
313.15 K, x1 = 1 | 1011.9 ± 0.86 | 1.658 ± 0.032
318.15 K, x1 = 0.1002 | 880.728 ± 0.27 | 0.4556 ± 0.0091
318.15 K, x1 = 0.2001 | 899.348 ± 0.3 | 0.5305 ± 0.01
318.15 K, x1 = 0.3001 | 916.356 ± 0.35 | 0.6187 ± 0.012
318.15 K, x1 = 0.4001 | 932.209 ± 0.4 | 0.7066 ± 0.014
318.15 K, x1 = 0.4999 | 946.847 ± 0.46 | 0.8068 ± 0.015
318.15 K, x1 = 0.5999 | 960.559 ± 0.52 | 0.92 ± 0.018
318.15 K, x1 = 0.6999 | 973.398 ± 0.59 | 1.052 ± 0.02
318.15 K, x1 = 0.7999 | 985.384 ± 0.67 | 1.196 ± 0.023
318.15 K, x1 = 0.8997 | 996.4 ± 0.75 | 1.348 ± 0.026
318.15 K, x1 = 1 | 1006.36 ± 0.85 | 1.491 ± 0.029
323.15 K, x1 = 0.1002 | 875.1 ± 0.27 | 0.4242 ± 0.0086
323.15 K, x1 = 0.2001 | 893.744 ± 0.3 | 0.5003 ± 0.0099
323.15 K, x1 = 0.3001 | 910.77 ± 0.35 | 0.5839 ± 0.011
323.15 K, x1 = 0.4001 | 926.634 ± 0.4 | 0.6648 ± 0.013
323.15 K, x1 = 0.4999 | 941.277 ± 0.45 | 0.755 ± 0.015
323.15 K, x1 = 0.5999 | 954.994 ± 0.52 | 0.8565 ± 0.016
323.15 K, x1 = 0.6999 | 967.835 ± 0.59 | 0.9727 ± 0.019
323.15 K, x1 = 0.7999 | 979.827 ± 0.66 | 1.103 ± 0.021
323.15 K, x1 = 0.8997 | 990.842 ± 0.75 | 1.235 ± 0.024
323.15 K, x1 = 1 | 1000.79 ± 0.84 | 1.349 ± 0.026
